In patent USRE39352E1, “Creatine amidinohydrolase, production thereof and use thereof” (Toyo Boseki Kabushiki Kaisha, priority 1996, dated 2006):
Values joined by “and” are separate entries in the source; they are usually repeats but may differ in a detail not shown here. Equal entries are not always repeated.

Experiments:
[1] = system: Alcaligenes faecalis TE3581 creatine amidinohydrolase mutant pCRH273M3 (FERM BP-5376), purified from Escherichia coli JM109 (pCRH273M3); assay: Km value for creatine, coupling assay using sarcosine oxidase and peroxidase (mutant pCRH273M3); type: biochemical; details: coupling assay with sarcosine oxidase and peroxidase, pH 7.6, 37° C.
[2] = system: Alcaligenes faecalis TE3581 creatine amidinohydrolase mutant pCRH273M1 (FERM BP-5374), purified from Escherichia coli JM109 (pCRH273M1); assay: Km value for creatine, coupling assay using sarcosine oxidase and peroxidase (mutant pCRH273M1); type: biochemical; details: coupling assay with sarcosine oxidase and peroxidase, pH 7.6, 37° C.
[3] = system: creatine amidinohydrolase produced by bacteria belonging to the genus Alcaligenes (Japanese Patent Unexamined Publication No. 63363/1994); details: cited from earlier work
[4] = system: creatine amidinohydrolase derived from bacteria belonging to the genus Actinobacillus; details: Japanese Patent Examined Publication No. 76915/1991; cited from earlier work
[5] = system: Alcaligenes faecalis TE3581 creatine amidinohydrolase mutant pCRH273M2 (FERM BP-5375), purified from Escherichia coli JM109 (pCRH273M2); assay: Km value for creatine, coupling assay using sarcosine oxidase and peroxidase (mutant pCRH273M2); type: biochemical; details: coupling assay with sarcosine oxidase and peroxidase, pH 7.6, 37° C.
[6] = system: creatine amidinohydrolase derived from bacteria belonging to the genus Corynebacterium; details: Japanese Patent Examined Publication No. 76915/1991; cited from earlier work
[7] = system: creatine amidinohydrolase derived from bacteria belonging to the genus Bacillus; details: Japanese Patent Examined Publication No. 76915/1991; cited from earlier work
[8] = system: Pseudomonas putida creatine amidinohydrolase; details: residual creatine determined with α-naphthol and diacetyl; Archives Biochemistry and Biophysics 177, 508-515 (1976); read-out: apparent Km value for creatine; cited from earlier work
[9] = system: Alcaligenes faecalis TE3581 (FERM P-14237) creatine amidinohydrolase, wild, SEQ ID NO: 1 (gene SEQ ID NO: 2); assay: Km value for creatine, coupling assay using sarcosine oxidase and peroxidase (wild enzyme); type: biochemical; details: coupling assay with sarcosine oxidase and peroxidase, pH 7.6, 37° C.
Excerpt: While the gene encoding a wild creatine amidinohydrolase which is to be mutated is not particularly limited, in one embodiment of the present invention, it is the creatine amidinohydrolase gene depicted in the Sequence Listing•SEQ ID:No.2, which is derived from Alcaligenes•faecalis TE3581 (FERM P-14237).
In another embodiment of the present invention, a novel creatine amidinohydrolase having a smaller Km value for creatine than a wild creatine amidinohydrolase is produced by mutating the gene encoding the amino acid sequence depicted in the Sequence Listing•SEQ ID No:1. […]
In the Examples, the activity of creatine amidinohydrolase was determined as follows. […]
The above-mentioned reaction mixture (3 ml) is taken with a cuvette (d=1 cm) and preliminarily heated to 37° C. for about 3 minutes. […] Using water as a control, changes in absorbance at 500 nm are recorded for 5 minutes using a spectrophotometer controlled to 37° C. Based on the linear portion of 2-5 minutes thereof, changes in absorbance per minute are determined (ΔOD) test.
The blank test is performed in the same manner as above except that a solution (0.1 ml, 50 mM potassium phosphate buffer, pH 7.5) for diluting the enzyme is used instead of the enzyme solution and changes in absorbance per minute are determined (ΔOD blank).
The enzyme amount is calculated by inserting each measure into the following formula. […]

[10] = system: creatine amidinohydrolase derived from bacteria belonging to the genus Micrococcus; details: Japanese Patent Examined Publication No. 76915/1991; cited from earlier work

CN(CC(=O)O)C(=N)N [creatine]
Km [1]: ~9 mM and 9 mM | Km [2]: ~6.5 mM and 6.5 mM | Km [3]: ~15.2 mM | Km [4]: ~20 mM | Km [5]: ~4.5 mM and 4.5 mM | Km [6]: ~20 mM | Km [7]: ~20 mM | Km [8]: 1.33 mM | Km [9]: 15.2 mM | Km [10]: ~20 mM
